Literature values as cited in publication PMC7395068, “The evolution of strategies to minimise the risk of human drug-induced liver injury (DILI) in drug discovery and development” (Archives of Toxicology, 2020).
Like-named read-outs stand apart in the source and are kept apart here. Where a SMILES comes first, the peptide text is derived from it. [ ]: non-standard residue; d: D form. The star is where a group is joined. dPhe(4-NHCONH2) = NC(=O)Nc1ccc(C[C@@H](N)C(=O)O)cc1; Dihydroorotyl(S) = O=C1C[C@@H](C(=O)*)NC(=O)N1; dPhe(4-Cl) = N[C@H](Cc1ccc(Cl)cc1)C(=O)O; Phe(4-NH2) = Nc1ccc(C[C@H](N)C(=O)O)cc1; d2Nal = N[C@H](Cc1ccc2ccccc2c1)C(=O)O; Lys(iPr) = CC(C)NCCCC[C@H](N)C(=O)O; dCit = NC(=O)NCCC[C@@H](N)C(=O)O; d3Pal = N[C@H](Cc1cccnc1)C(=O)O

Details: cited from earlier work
[1] = LTKB DILIrank category, ref Chen 2016
[2] = binary DILI call, ref Chen 2016
[3] = binary in vivo human DILI call, ref Chen 2016
[4] = human DILI, LTKB DILIrank category, ref Chen 2016

CC[C@H](C)C[C@H](C)CCCCCCCCC(=O)N[C@H]1C[C@@H](O)[C@@H](NCCN)NC(=O)[C@@H]2[C@@H](O)CCN2C(=O)[C@H]([C@H](O)CCN)NC(=O)[C@H]([C@H](O)[C@@H](O)c2ccc(O)cc2)NC(=O)[C@@H]2C[C@@H](O)CN2C(=O)[C@H]([C@@H](C)O)NC1=O [caspofungin]
DILI severity category [1]: Ambiguous DILI-concern | DILI +VE (5-8), DILI -VE (-4) [2]: -VE

N[C@@H](C(=O)N[C@@H]1C(=O)N2C(C(=O)O)=C(Cl)CS[C@H]12)c1ccccc1 [cefaclor]
DILI severity category [1]: vLess-DILI-Concern

CC1=C(C(=O)O)N2C(=O)[C@@H](NC(=O)[C@H](N)c3ccc(O)cc3)[C@H]2SC1 [cefadroxil]
DILI severity category [1]: vLess-DILI-Concern

Cc1nnc(SCC2=C(C(=O)O)N3C(=O)[C@@H](NC(=O)Cn4cnnn4)[C@H]3SC2)s1 [cefazolin]
DILI +VE (5-8), DILI -VE (-4) (in vivo): +VE | DILI severity category (in vivo): vLess-DILI-Concern

C=CC1=C(C(=O)O)N2C(=O)[C@@H](NC(=O)/C(=N\O)c3csc(N)n3)[C@H]2SC1 [cefdinir]
DILI severity category [1]: vLess-DILI-Concern

CO/N=C(\C(=O)N[C@@H]1C(=O)N2C(C(=O)O)=C(/C=C\c3scnc3C)CS[C@H]12)c1csc(N)n1 [cefditoren]
DILI severity category [1]: Ambiguous DILI-concern | DILI +VE (5-8), DILI -VE (-4) [2]: -VE

CO/N=C(\C(=O)N[C@@H]1C(=O)N2C(C(=O)[O-])=C(C[N+]3(C)CCCC3)CS[C@H]12)c1csc(N)n1 [cefepime]
DILI +VE (5-8), DILI -VE (-4) (in vivo): +VE | DILI severity category (in vivo): vLess-DILI-Concern

CO[C@@]1(NC(=O)Cc2cccs2)C(=O)N2C(C(=O)O)=C(COC(N)=O)CS[C@@H]21 [cefoxitin]
DILI severity category [1]: Ambiguous DILI-concern | DILI +VE (5-8), DILI -VE (-4) [2]: -VE

COCC1=C(C(=O)O)N2C(=O)[C@@H](NC(=O)/C(=N\OC)c3csc(N)n3)[C@H]2SC1 [cefpodoxime]
DILI severity category [1]: Ambiguous DILI-concern | DILI +VE (5-8), DILI -VE (-4) [2]: -VE

CC=CC1=C(C(=O)O)N2C(=O)[C@@H](NC(=O)[C@H](N)c3ccc(O)cc3)[C@H]2SC1 [cefprozil]
DILI +VE (5-8), DILI -VE (-4) (in vivo): +VE | DILI severity category (in vivo): vLess-DILI-Concern

Nc1nc(/C(=C/CC(=O)O)C(=O)N[C@@H]2C(=O)N3C(C(=O)O)=CCS[C@H]23)cs1 [ceftibuten]
DILI severity category [1]: Ambiguous DILI-concern | DILI +VE (5-8), DILI -VE (-4) [2]: -VE

CO/N=C(\C(=O)N[C@@H]1C(=O)N2C(C(=O)O)=CCS[C@H]12)c1csc(N)n1 [ceftizoxime]
DILI severity category [1]: Ambiguous DILI-concern | DILI +VE (5-8), DILI -VE (-4) [2]: -VE

CO/N=C(\C(=O)N[C@@H]1C(=O)N2C(C(=O)O)=C(COC(N)=O)CS[C@H]12)c1ccco1 [cefuroxime]
DILI severity category [1]: vLess-DILI-Concern

CC1=C(C(=O)O)N2C(=O)[C@@H](NC(=O)[C@H](N)C3=CCC=CC3)[C@H]2SC1 [cephradine]
DILI severity category [1]: Ambiguous DILI-concern | DILI +VE (5-8), DILI -VE (-4) [2]: -VE

CC(=O)N[C@H](Cc1ccc2ccccc2c1)C(=O)N[C@H](Cc1ccc(Cl)cc1)C(=O)N[C@H](Cc1cccnc1)C(=O)N[C@@H](CO)C(=O)N[C@@H](Cc1ccc(O)cc1)C(=O)N[C@H](CCCNC(N)=O)C(=O)N[C@@H](CC(C)C)C(=O)N[C@@H](CCCNC(=N)N)C(=O)N1CCC[C@H]1C(=O)N[C@H](C)C(N)=O [cetrorelix] (Ac-[d2Nal][dPhe(4-Cl)][d3Pal]SY[dCit]LRP[dA]-NH2)
DILI severity category [1]: Ambiguous DILI-concern | DILI +VE (5-8), DILI -VE (-4) [2]: -VE

CC1OC2(CS1)CN1CCC2CC1 (centres unmarked) [cevimeline]
DILI severity category [1]: Ambiguous DILI-concern | DILI +VE (5-8), DILI -VE (-4) [2]: -VE

CN1CCN(C(c2ccccc2)c2ccc(Cl)cc2)CC1 (centres unmarked) [chlorcyclizine]
DILI severity category [1]: vLess-DILI-Concern

CNC1=Nc2ccc(Cl)cc2C(c2ccccc2)=[N+]([O-])C1 [chlordiazepoxide]
DILI +VE (5-8), DILI -VE (-4) (in vivo): +VE | DILI severity category (in vivo): vLess-DILI-Concern

CN1C(=O)CCS(=O)(=O)C1c1ccc(Cl)cc1 (centres unmarked) [chlormezanone]
DILI +VE (5-8), DILI -VE (-4) (in vivo): +VE | DILI severity category (in vivo): vMost-DILI-Concern

NS(=O)(=O)c1cc(C2(O)NC(=O)c3ccccc32)ccc1Cl (centres unmarked) [chlorthalidone]
DILI severity category [1]: Ambiguous DILI-concern | DILI +VE (5-8), DILI -VE (-4) [2]: -VE

Nc1ccn(C[C@@H](CO)OCP(=O)(O)O)c(=O)n1 [cidofovir]
DILI severity category [1]: Ambiguous DILI-concern | DILI +VE (5-8), DILI -VE (-4) [2]: -VE

C[C@@H](NCCCc1cccc(C(F)(F)F)c1)c1cccc2ccccc12 [cinacalcet]
DILI severity category [1]: vNo-DILI-Concern | DILI +VE (5-8), DILI -VE (-4) [2]: -VE

COc1ccc(C[C@@H]2c3cc(OC)c(OC)cc3CC[N@+]2(C)CCC(=O)OCCCCCOC(=O)CC[N@@+]2(C)CCc3cc(OC)c(OC)cc3[C@H]2Cc2ccc(OC)c(OC)c2)cc1OC [cisatracurium besylate]
DILI severity category [1]: vNo-DILI-Concern | DILI +VE (5-8), DILI -VE (-4) [2]: -VE

CCC[C@@H]1C[C@@H](C(=O)N[C@@H]([C@H]2O[C@H](SC)[C@H](OP(=O)(O)O)[C@@H](O)[C@H]2O)[C@H](C)Cl)N(C)C1 [clindamycin-2-phosphate]
DILI severity category (in vivo): Ambiguous DILI-concern

CCC[C@@H]1C[C@@H](C(=O)N[C@@H]([C@H]2O[C@H](SC)[C@H](O)[C@@H](O)[C@H]2O)[C@H](C)Cl)N(C)C1 [clindamycin]
DILI severity category (in vivo): vLess-DILI-Concern

Nc1nc(Cl)nc2c1ncn2[C@@H]1O[C@H](CO)[C@@H](O)[C@@H]1F [clofarabine]
DILI severity category [1]: Ambiguous DILI-concern | DILI +VE (5-8), DILI -VE (-4) [2]: -VE

CN(C)CCCC1c2ccccc2Nc2ccc(Cl)cc21 (centres unmarked) [clomacran]
DILI severity category [1]: vMost-DILI-Concern

COc1ccc2c(C(=O)c3ccc(Cl)cc3)c(C)n(CC(=O)O)c2c1 [clometacin]
DILI severity category [1]: vMost-DILI-Concern

CCN(CC)CCOc1ccc(C(=C(Cl)c2ccccc2)c2ccccc2)cc1 [clomiphene]
DILI severity category [1]: vLess-DILI-Concern

COC(=O)[C@H](c1ccccc1Cl)N1CCc2sccc2C1 [clopidogrel]
DILI severity category [1]: vLess-DILI-Concern

O=C(O)C1N=C(c2ccccc2)c2cc(Cl)ccc2NC1=O (centres unmarked) [clorazepate]
DILI severity category [1]: Ambiguous DILI-concern | DILI +VE (5-8), DILI -VE (-4) [2]: -VE

COc1ccc2c3c1O[C@H]1[C@@H](O)C=C[C@H]4[C@@H](C2)N(C)CC[C@@]341 [codeine]
DILI +VE (5-8), DILI -VE (-4) (in vivo): -VE | DILI severity category (in vivo): vNo-DILI-Concern

CC(=O)OCC(=O)[C@@]1(O)CC[C@H]2[C@@H]3CCC4=CC(=O)CC[C@]4(C)[C@H]3C(=O)C[C@@]21C [cortisone acetate]
DILI +VE (5-8), DILI -VE (-4) [3]: -VE | DILI severity category [4]: vNo-DILI-Concern

[Cl][Cu][Cl] [cupric chloride]
DILI +VE (5-8), DILI -VE (-4) (in vivo): -VE | DILI severity category (in vivo): vNo-DILI-Concern

NCCS [cysteamine]
DILI +VE (5-8), DILI -VE (-4) [3]: -VE | DILI severity category [4]: Ambiguous DILI-concern

CCCCCCCCCC(=O)N[C@@H](Cc1c[nH]c2ccccc12)C(=O)N[C@H](CC(N)=O)C(=O)N[C@@H](CC(=O)O)C(=O)N[C@@H]1C(=O)NCC(=O)N[C@@H](CCCN)C(=O)N[C@@H](CC(=O)O)C(=O)N[C@H](C)C(=O)N[C@@H](CC(=O)O)C(=O)NCC(=O)N[C@H](CO)C(=O)N[C@@H]([C@H](C)CC(=O)O)C(=O)N[C@@H](CC(=O)c2ccccc2N)C(=O)O[C@@H]1C [daptomycin]
DILI +VE (5-8), DILI -VE (-4) [3]: +VE | DILI severity category [4]: vLess-DILI-Concern

NC(=O)C(c1ccccc1)(c1ccccc1)[C@@H]1CCN(CCc2ccc3c(c2)CCO3)C1 [darifenacin]
DILI +VE (5-8), DILI -VE (-4) [3]: -VE | DILI severity category [4]: vNo-DILI-Concern

Nc1ncn([C@H]2C[C@H](O)[C@@H](CO)O2)c(=O)n1 [decitabine]
DILI +VE (5-8), DILI -VE (-4) [3]: -VE | DILI severity category [4]: Ambiguous DILI-concern

CC(=O)N[C@H](Cc1ccc2ccccc2c1)C(=O)N[C@H](Cc1ccc(Cl)cc1)C(=O)N[C@H](Cc1cccnc1)C(=O)N[C@@H](CO)C(=O)N[C@@H](Cc1ccc(NC(=O)[C@@H]2CC(=O)NC(=O)N2)cc1)C(=O)N[C@H](Cc1ccc(NC(N)=O)cc1)C(=O)N[C@@H](CC(C)C)C(=O)N[C@@H](CCCCNC(C)C)C(=O)N1CCC[C@H]1C(=O)N[C@H](C)C(N)=O [degarelix] (Ac-[d2Nal][dPhe(4-Cl)][d3Pal]S[Phe(4-NH2)](Dihydroorotyl(S))[dPhe(4-NHCONH2)]L[Lys(iPr)]P[dA]-NH2)
DILI +VE (5-8), DILI -VE (-4) [3]: -VE | DILI severity category [4]: Ambiguous DILI-concern

CC(C)Nc1cccnc1N1CCN(C(=O)c2cc3cc(NS(C)(=O)=O)ccc3[nH]2)CC1 [delavirdine]
DILI +VE (5-8), DILI -VE (-4) [3]: -VE | DILI severity category [4]: Ambiguous DILI-concern

CN(C)CC(c1ccc(O)cc1)C1(O)CCCCC1 (centres unmarked) [desvenlafaxine]
DILI +VE (5-8), DILI -VE (-4) [3]: +VE | DILI severity category [4]: vLess-DILI-Concern

CN(C)CC[C@@H](c1ccc(Cl)cc1)c1ccccn1 [dexchlorpheniramine]
DILI +VE (5-8), DILI -VE (-4) [3]: -VE | DILI severity category [4]: vNo-DILI-Concern

Cc1c(OCC(F)(F)F)ccnc1C[S@@+]([O-])c1nc2ccccc2[nH]1 [dexlansoprazole]
DILI +VE (5-8), DILI -VE (-4) [3]: +VE | DILI severity category [4]: vLess-DILI-Concern

Cc1cccc([C@H](C)c2cnc[nH]2)c1C [dexmedetomidine]
DILI +VE (5-8), DILI -VE (-4) [3]: -VE | DILI severity category [4]: Ambiguous DILI-concern

COC(=O)[C@H](c1ccccc1)[C@H]1CCCCN1 [dexmethylphenidate]
DILI +VE (5-8), DILI -VE (-4) (in vivo): +VE | DILI severity category (in vivo): vLess-DILI-Concern

CC(C)(CO)[C@@H](O)C(=O)NCCCO [dexpanthenol]
DILI +VE (5-8), DILI -VE (-4) (in vivo): -VE | DILI severity category (in vivo): vNo-DILI-Concern

C[C@@H](CN1CC(=O)NC(=O)C1)N1CC(=O)NC(=O)C1 [dexrazoxane]
DILI +VE (5-8), DILI -VE (-4) [3]: -VE | DILI severity category [4]: Ambiguous DILI-concern

C[C@H](N)Cc1ccccc1 [dextroamphetamine]
DILI +VE (5-8), DILI -VE (-4) (in vivo): -VE | DILI severity category (in vivo): vNo-DILI-Concern

NS(=O)(=O)c1cc(Cl)c(Cl)c(S(N)(=O)=O)c1 [dichlorphenamide]
DILI +VE (5-8), DILI -VE (-4) [3]: -VE | DILI severity category [4]: vNo-DILI-Concern

CCN(CC)CCOC(=O)C1(C2CCCCC2)CCCCC1 [dicyclomine]
DILI +VE (5-8), DILI -VE (-4) [3]: -VE | DILI severity category [4]: vNo-DILI-Concern
